# From US12077503B2, “Substituted cyclic amides and their use as herbicides” (FMC CORPORATION, priority 2015, dated 2024)
# Legend:
# Assay type in all cases: in vivo
# [1] = test system: giant foxtail (Setaria faberii); experiment: Test A postemergence
# From the text: (§1) Seeds of plant species selected from barnyardgrass (Echinochloa crus-galli), Kochia (Kochia scoparia), ragweed (common ragweed, Ambrosia elatior), ryegrass, Italian (Italian ryegrass, Lolium multiflorum), crabgrass, large (Digitaria sanguinalis), giant foxtail (Setaria faberii), green foxtail (Setaria viridis), morningglory (Ipomoea spp.), pigweed (Amaranthus retroflexus), velvetleaf (Abutilon theophrasti), wheat (Triticum aestivum), and corn (Zea mays) were planted into a blend of loam soil and sand and treated preemergence with a directed soil spray using test chemicals formulated in anon-phytotoxic solvent mixture which included a surfactant.
# (§2) At the same time, plants selected from these crop and weed species and also blackgrass (Alopecurus myosuroides), and Galium (catchweed bedstraw, Galium aparine) were planted in pots containing the same blend of loam soil and sand and treated with postemergence applications of test chemicals formulated in the same manner. Plants ranged in height from 2 to 10 cm and were in the one- to two-leaf stage for the postemergence treatment. Treated plants and untreated controls were maintained in a greenhouse for approximately 10 d, after which time all treated plants were compared to untreated controls and visually evaluated for injury. Plant response ratings, summarized in Table A, are based on a 0 to 100 scale where 0 is no effect and 100 is complete control. A dash (-) response means no test result.
# [2] = test system: barnyardgrass (Echinochloa crus-galli); experiment: Test A postemergence
# From the text: as §1, §2
# [3] = test system: wheat (Triticum aestivum); experiment: Test A postemergence
# From the text: as §1, §2
# [4] = test system: Galium (catchweed bedstraw, Galium aparine); experiment: Test A postemergence
# From the text: as §1, §2
# Kochia (Kochia scoparia) [5] = experiment: Test A postemergence
# From the text: as §1, §2
# [6] = test system: blackgrass (Alopecurus myosuroides); experiment: Test A postemergence
# From the text: as §1, §2
# [7] = test system: pigweed (Amaranthus retroflexus); experiment: Test A postemergence
# From the text: as §1, §2
# [8] = test system: ragweed (common ragweed, Ambrosia elatior); experiment: Test A postemergence
# From the text: as §1, §2
# [9] = test system: ryegrass, Italian (Italian ryegrass, Lolium multiflorum); experiment: Test A postemergence
# From the text: as §1, §2
# corn (Zea mays) = experiment: Test A postemergence
# From the text: as §1, §2
# [10] = test system: giant foxtail (Setaria faberii); experiment: Test A preemergence; conditions: Preemergence; for Plant response rating, Foxtail, Giant: 125 g ai/ha, visual injury after approximately 10 d, 0 to 100 scale where 0 is no effect and 100 is complete control; for Foxtail, Giant plant response rating (0 to 100 scale, 0 is no effect, 100 is complete control): 500 g ai/ha, visual injury approx. 10 d
# From the text: as §1, §2
# [11] = test system: barnyardgrass (Echinochloa crus-galli); experiment: Test A preemergence; conditions: Preemergence; for Plant response rating, Barnyardgrass: 125 g ai/ha, visual injury after approximately 10 d, 0 to 100 scale where 0 is no effect and 100 is complete control; for Barnyardgrass plant response rating (0 to 100 scale, 0 is no effect, 100 is complete control): 500 g ai/ha, visual injury approx. 10 d
# From the text: as §1, §2
# Kochia (Kochia scoparia) [12] = experiment: Test A preemergence; conditions: Preemergence; for Plant response rating, Kochia: 125 g ai/ha, visual injury after approximately 10 d, 0 to 100 scale where 0 is no effect and 100 is complete control; for Kochia plant response rating (0 to 100 scale, 0 is no effect, 100 is complete control): 500 g ai/ha, visual injury approx. 10 d
# From the text: as §1, §2
# [13] = test system: pigweed (Amaranthus retroflexus); experiment: Test A preemergence; conditions: Preemergence; for Plant response rating, Pigweed: 125 g ai/ha, visual injury after approximately 10 d, 0 to 100 scale where 0 is no effect and 100 is complete control; for Pigweed plant response rating (0 to 100 scale, 0 is no effect, 100 is complete control): 500 g ai/ha, visual injury approx. 10 d
# From the text: as §1, §2
# [14] = test system: ragweed (common ragweed, Ambrosia elatior); experiment: Test A preemergence; conditions: Preemergence; for Plant response rating, Ragweed: 125 g ai/ha, visual injury after approximately 10 d, 0 to 100 scale where 0 is no effect and 100 is complete control; for Ragweed plant response rating (0 to 100 scale, 0 is no effect, 100 is complete control): 500 g ai/ha, visual injury approx. 10 d
# From the text: as §1, §2
# [15] = test system: ryegrass, Italian (Italian ryegrass, Lolium multiflorum); experiment: Test A preemergence; conditions: Preemergence; for Plant response rating, Ryegrass, Italian: 125 g ai/ha, visual injury after approximately 10 d, 0 to 100 scale where 0 is no effect and 100 is complete control; for Ryegrass, Italian plant response rating (0 to 100 scale, 0 is no effect, 100 is complete control): 500 g ai/ha, visual injury approx. 10 d
# From the text: as §1, §2
# [16] = 125 g ai/ha, postemergence, visual rating after approx. 10 d, 0 to 100 scale (0 no effect, 100 complete control)
# [17] = Postemergence, 500 g ai/ha, 0 to 100 scale where 0 is no effect and 100 is complete control
Compound,"Plant response rating, Foxtail, Giant [1, 16]","Plant response rating, Foxtail, Giant [1, 17]","Plant response rating, Barnyardgrass [2, 16]","Plant response rating, Barnyardgrass [2, 17]","Plant response rating, Wheat [3, 16]","Plant response rating, Wheat [3, 17]","Plant response rating, Galium [4, 16]","Plant response rating, Galium [4, 17]","Plant response rating, Kochia (Kochia (Kochia scoparia) [5]; [16])","Plant response rating, Kochia (Kochia (Kochia scoparia) [5]; [17])","Plant response rating, Blackgrass [6, 16]","Plant response rating, Blackgrass [6, 17]","Plant response rating, Pigweed [7, 16]","Plant response rating, Pigweed [7, 17]","Plant response rating, Ragweed [8, 16]","Plant response rating, Ragweed [8, 17]","Plant response rating, Ryegrass, Italian [9, 16]","Plant response rating, Ryegrass, Italian [9, 17]","Plant response rating, Corn (corn (Zea mays); [16])","Plant response rating, Corn (corn (Zea mays); [17])",other results
CCc1cccc(C2CN(C)C(=O)C2C(=O)Nc2cccc(F)c2F)c1 (stereo not drawn) [Compound 568],90,90,100,100,30,70,60,60,70,70,60,90,30,60,30,30,70,90,60,90,"Plant response rating, Foxtail, Giant [10]: 100; Foxtail, Giant plant response rating (0 to 100 scale, 0 is no effect, 100 is complete control) [10]: 100; Plant response rating, Barnyardgrass [11]: 90; Barnyardgrass plant response rating (0 to 100 scale, 0 is no effect, 100 is complete control) [11]: 100; Plant response rating, Kochia (Kochia (Kochia scoparia) [12]): 70; Kochia plant response rating (0 to 100 scale, 0 is no effect, 100 is complete control) (Kochia (Kochia scoparia) [12]): 80; Plant response rating, Pigweed [13]: 30; Pigweed plant response rating (0 to 100 scale, 0 is no effect, 100 is complete control) [13]: 60; Plant response rating, Ragweed [14]: 20; Ragweed plant response rating (0 to 100 scale, 0 is no effect, 100 is complete control) [14]: 50; Plant response rating, Ryegrass, Italian [15]: 70; Ryegrass, Italian plant response rating (0 to 100 scale, 0 is no effect, 100 is complete control) [15]: 100"
CCc1cccc(C2CN(C)C(=O)C2C(=O)Nc2ccccc2S(C)(=O)=O)c1 (stereo not drawn) [Compound 569],90,90,90,90,30,70,40,60,20,50,60,80,0,50,30,60,40,60,20,60,"Plant response rating, Foxtail, Giant [10]: 100; Foxtail, Giant plant response rating (0 to 100 scale, 0 is no effect, 100 is complete control) [10]: 100; Plant response rating, Barnyardgrass [11]: 90; Barnyardgrass plant response rating (0 to 100 scale, 0 is no effect, 100 is complete control) [11]: 100; Plant response rating, Kochia (Kochia (Kochia scoparia) [12]): 60; Kochia plant response rating (0 to 100 scale, 0 is no effect, 100 is complete control) (Kochia (Kochia scoparia) [12]): 90; Plant response rating, Pigweed [13]: 50; Pigweed plant response rating (0 to 100 scale, 0 is no effect, 100 is complete control) [13]: 80; Plant response rating, Ragweed [14]: 60; Ragweed plant response rating (0 to 100 scale, 0 is no effect, 100 is complete control) [14]: 70; Plant response rating, Ryegrass, Italian [15]: 30; Ryegrass, Italian plant response rating (0 to 100 scale, 0 is no effect, 100 is complete control) [15]: 70"
CN1CC(c2cccc(C(F)(F)F)c2)C(C(=O)Nc2cccc(C#N)c2F)C1=O (stereo not drawn) [Compound 576],90,90,90,90,60,70,50,60,30,60,50,50,0,50,30,50,30,60,80,80,"Plant response rating, Foxtail, Giant [10]: 90; Foxtail, Giant plant response rating (0 to 100 scale, 0 is no effect, 100 is complete control) [10]: 90; Plant response rating, Barnyardgrass [11]: 90; Barnyardgrass plant response rating (0 to 100 scale, 0 is no effect, 100 is complete control) [11]: 90; Plant response rating, Kochia (Kochia (Kochia scoparia) [12]): 20; Kochia plant response rating (0 to 100 scale, 0 is no effect, 100 is complete control) (Kochia (Kochia scoparia) [12]): 90; Plant response rating, Pigweed [13]: 20; Pigweed plant response rating (0 to 100 scale, 0 is no effect, 100 is complete control) [13]: 80; Plant response rating, Ragweed [14]: 20; Ragweed plant response rating (0 to 100 scale, 0 is no effect, 100 is complete control) [14]: 60; Plant response rating, Ryegrass, Italian [15]: 20; Ryegrass, Italian plant response rating (0 to 100 scale, 0 is no effect, 100 is complete control) [15]: 30"
